Measurements published in patent publication US11484539B2, “Compounds and their uses for alleviating menopause-associated symptoms” (Estetra SPRL, priority 2018, dated 2022).

System: post-menopausal women
Assay: Weekly frequency of moderate to severe VMS, dose-finding study
Format: in vivo
Details: for Difference with placebo, LS adjusted mean, absolute change in weekly frequency of moderate to severe VMS / Difference with placebo, LS adjusted mean, relative change in weekly frequency of moderate to severe VMS: 2.5 mg E4 vs placebo
Description: To determine the Minimum Effective Dose (MED), firstly the selection criteria required that patients presented at least 7 moderate to severe VMS/day or at least 50 moderate to severe VMS/week in the week preceding randomization. Secondly, a placebo group was included in a double-blind fashion. Thirdly, the total patient number was such that statistical significance could be obtained between separate arms of the study. Fourthly, the absolute change from baseline in weekly frequency of moderate to severe VMS was taken into account. An analysis of covariance (ANCOVA) was performed based on the untransformed change in weekly frequency of moderate to severe VMS from baseline. Finally, the change in severity from baseline was evaluated. For this, the Severity Scoring System of VMS was documented by the subjects as follows: • a score of Mild (1) for a sensation of heat without sweating; • a score of Moderate (2) for a sensation of heat with sweating/the subject is able to continue activity; and • a score of Severe (3) for a sensation of heat with sweating/which causes cessation of activity.
Enrolment was approximately 18 months. Individual subject participation was up to 27 weeks: up to 6 weeks pre-screening and washout, up to 4 weeks screening and run-in period, up to 91 days (13 weeks) of E4/placebo treatment followed by 2 weeks (14 days) of progestin therapy and a Follow up visit 1 week after completion of progestin therapy in non-hysterectomised subjects only.
To define the minimum effective dose (MED) of the oral dose of E4 by evaluating changes in frequency and in severity of moderate to severe vasomotor symptoms (VMS).
This was a prospective, multicentre, randomised, placebo-controlled, double-blinded, dose-finding study.
Eligible subjects were hysterectomised and non-hysterectomised post-menopausal women aged 40 to 65 years, inclusive, presenting at least 7 moderate to severe hot flushes/day or at least 50 moderate to severe hot flushes/week.
The subjects have met all of the following inclusion criteria at the randomization visit. These criteria were assessed during the screening period: • 1. Women aged 40 to 65 years, inclusive, presenting at least 7 moderate to severe hot flushes/day or at least 50 moderate to severe hot flushes/week in the week preceding randomization. • 2. Body Mass Index (BMI) between 18.0 and 35.0 kg/m^2, inclusive. • 3. Post-menopausal status defined as levels of follicle stimulating hormone (FSH) >40 IU/L and: • amenorrhoea for at least 12 consecutive months or, • amenorrhoea for at least 6 months with estradiol (E2)<20 pg/mL or, • at least 6 weeks post-surgical bilateral oophorectomy with or without hysterectomy with a copy of the pathology report or a statement on letterhead from the subject's physician documenting both ovaries were removed is required. • 4. For non-hysterectomised women: intact uterus with bi-layer endometrial thickness […] on TVUS. • 5. Negative pregnancy test. • 6. Good physical and mental health, in the judgement of the Principal Investigator (PI), on the basis of medical, surgical and gynaecological history, physical examination, gynaecological examination, clinical laboratory, and vital signs. • 7. Subject has provided signed and dated written informed consent before admission to the study. • 8. Subject is able to understand and comply with the protocol requirements, instructions, and protocol-stated restrictions. Exclusion Criteria:
All treatments (Estetrol, hereinafter, E4, [2.5 mg, 5 mg, 10 mg, 15 mg] capsule) were administered once daily (QD) per os for at least 12 consecutive weeks until the last biological assessments (Day 91 maximum) had been performed.
In order to analyse the data recorded in this study, treatment groups have been compared using an ANCOVA (analysis of covariance) with respect to the change in weekly frequency of moderate to severe VMS from baseline to weeks 4 and 12. […]

[1] = 2.5 mg E4, week 4, ANCOVA with study centre
[2] = 2.5 mg E4, week 4, without site effect
[3] = 2.5 mg E4, week 12, ANCOVA with study centre
[4] = 2.5 mg E4, week 12, without site effect
[5] = week 4, ANCOVA with study centre
[6] = week 12, ANCOVA with study centre
[7] = 5 mg E4, week 4, ANCOVA with study centre
[8] = 5 mg E4, week 4, without site effect
[9] = 5 mg E4, week 12, ANCOVA with study centre
[10] = 5 mg E4, week 12, without site effect

C[C@]12CC[C@@H]3c4ccc(O)cc4CC[C@H]3[C@@H]1[C@@H](O)[C@@H](O)[C@@H]2O [E4, 1,3,5 (10)-estratrien-3,15alpha,16alpha,17beta-tetrol]
LS adjusted mean change from baseline in weekly frequency of moderate to severe VMS [1]: −32.26
LS adjusted mean relative change (%) from baseline in weekly frequency of moderate to severe VMS [1]: -48.5%
LS adjusted mean change from baseline in weekly frequency of moderate to severe VMS [2]: −32.68
LS adjusted mean relative change (%) from baseline in weekly frequency of moderate to severe VMS [2]: -49.5%
LS adjusted mean change from baseline in weekly frequency of moderate to severe VMS [3]: −40.13
LS adjusted mean relative change (%) from baseline in weekly frequency of moderate to severe VMS [3]: -60.6%
LS adjusted mean change from baseline in weekly frequency of moderate to severe VMS [4]: −40.68
LS adjusted mean relative change (%) from baseline in weekly frequency of moderate to severe VMS [4]: -62.2%
Mean change from baseline in weekly frequency of moderate to severe VMS (2.5 mg E4 QD per os, week 1): −17.28
Relative change (% from baseline) in weekly frequency of moderate to severe VMS, mean (2.5 mg E4 QD per os, week 1): −23%
Mean change from baseline in weekly frequency of moderate to severe VMS (2.5 mg E4 QD per os, week 2): −25.10
Relative change (% from baseline) in weekly frequency of moderate to severe VMS, mean (2.5 mg E4 QD per os, week 2): −34%
Mean change from baseline in weekly frequency of moderate to severe VMS (2.5 mg E4 QD per os, week 3): −32.46
Relative change (% from baseline) in weekly frequency of moderate to severe VMS, mean (2.5 mg E4 QD per os, week 3): −44%
Mean change from baseline in weekly frequency of moderate to severe VMS (2.5 mg E4 QD per os, week 4): −35.89
Relative change (% from baseline) in weekly frequency of moderate to severe VMS, mean (2.5 mg E4 QD per os, week 4): −49%
Mean change from baseline in weekly frequency of moderate to severe VMS (2.5 mg E4 QD per os, week 5): −37.16
Relative change (% from baseline) in weekly frequency of moderate to severe VMS, mean (2.5 mg E4 QD per os, week 5): −50%
Mean change from baseline in weekly frequency of moderate to severe VMS (2.5 mg E4 QD per os, week 6): −39.98
Relative change (% from baseline) in weekly frequency of moderate to severe VMS, mean (2.5 mg E4 QD per os, week 6): −54%
Mean change from baseline in weekly frequency of moderate to severe VMS (2.5 mg E4 QD per os, week 7): −42.44
Relative change (% from baseline) in weekly frequency of moderate to severe VMS, mean (2.5 mg E4 QD per os, week 7): −57%
Mean change from baseline in weekly frequency of moderate to severe VMS (2.5 mg E4 QD per os, week 8): −43.62
Relative change (% from baseline) in weekly frequency of moderate to severe VMS, mean (2.5 mg E4 QD per os, week 8): −58%
Mean change from baseline in weekly frequency of moderate to severe VMS (2.5 mg E4 QD per os, week 9): −45.19
Relative change (% from baseline) in weekly frequency of moderate to severe VMS, mean (2.5 mg E4 QD per os, week 9): −61%
Mean change from baseline in weekly frequency of moderate to severe VMS (2.5 mg E4 QD per os, week 10): −45.54
Relative change (% from baseline) in weekly frequency of moderate to severe VMS, mean (2.5 mg E4 QD per os, week 10): −61%
Mean change from baseline in weekly frequency of moderate to severe VMS (2.5 mg E4 QD per os, week 11): −44.74
Relative change (% from baseline) in weekly frequency of moderate to severe VMS, mean (2.5 mg E4 QD per os, week 11): −60%
Mean change from baseline in weekly frequency of moderate to severe VMS (2.5 mg E4 QD per os, week 12): −45.04
Relative change (% from baseline) in weekly frequency of moderate to severe VMS, mean (2.5 mg E4 QD per os, week 12): −61%
Difference with placebo, LS adjusted mean, absolute change in weekly frequency of moderate to severe VMS [5]: 1.536
Difference with placebo, LS adjusted mean, relative change in weekly frequency of moderate to severe VMS [5]: 0.005984
Difference with placebo, LS adjusted mean, absolute change in weekly frequency of moderate to severe VMS (week 4, without site effect): 0.9721
Difference with placebo, LS adjusted mean, relative change in weekly frequency of moderate to severe VMS (week 4, without site effect): −0.005455
Difference with placebo, LS adjusted mean, absolute change in weekly frequency of moderate to severe VMS [6]: 3.603
Difference with placebo, LS adjusted mean, relative change in weekly frequency of moderate to severe VMS [6]: 0.03673
Difference with placebo, LS adjusted mean, absolute change in weekly frequency of moderate to severe VMS (week 12, without site effect): 3.246
Difference with placebo, LS adjusted mean, relative change in weekly frequency of moderate to severe VMS (week 12, without site effect): 0.02897
LS adjusted mean change from baseline in weekly frequency of moderate to severe VMS [7]: −27.44
LS adjusted mean relative change (%) from baseline in weekly frequency of moderate to severe VMS [7]: -42.2%
LS adjusted mean change from baseline in weekly frequency of moderate to severe VMS [8]: −27.87
LS adjusted mean relative change (%) from baseline in weekly frequency of moderate to severe VMS [8]: -43.1%
LS adjusted mean change from baseline in weekly frequency of moderate to severe VMS [9]: −40.68
LS adjusted mean relative change (%) from baseline in weekly frequency of moderate to severe VMS [9]: -60.3%
LS adjusted mean change from baseline in weekly frequency of moderate to severe VMS [10]: −41.01
LS adjusted mean relative change (%) from baseline in weekly frequency of moderate to severe VMS [10]: -61.4%
Mean change from baseline in weekly frequency of moderate to severe VMS (5 mg E4 QD per os, week 1): −15.04
Relative change (% from baseline) in weekly frequency of moderate to severe VMS, mean (5 mg E4 QD per os, week 1): −23%
Mean change from baseline in weekly frequency of moderate to severe VMS (5 mg E4 QD per os, week 2): −21.68
